From US12606797B2, “Methods of detection of mechanically-activated platelet activation and uses thereof” (Arizona Board of Regents on Behalf of the University of …, priority 2018, dated 2026)

Key:
[1] = system: integrin GPIIb/IIIa activation on gel-filtered platelets; experiment: Flow cytometry of integrin GPIIb/IIIa activation (anti-CD41/CD61-FITC PAC-1 and anti-CD41-APC double staining); format: cell-based, human; details: for number of CD41/CD61-positive platelets following GFP stimulation (in words): 2.5 mM CaCl2, vs intact platelets; for number of platelets presenting activated GPIIb/IIIa (CD41/CD61-positive among CD41-positive) / elevation of number of platelets presenting activated GPIIb/IIIa as compared with intact platelets: GFP, 10 uM ADP, 1 U/mL thrombin; for number of platelets presenting activated GPIIb/IIIa (CD41/CD61-positive among CD41-positive): 2.5 mM CaCl2, gate ≥4000 AU, intact platelets 6.7±2.9%
Procedure: (§1) To induce biochemical activation, GFP (2×10^4 platelets/μL, final volume 100 μL) were treated with biochemical agonists mentioned above in presence of 2.5 mM CaCl2), mixed gently and incubated undisturbed for 15 minutes at room temperature. Then APC-conjugated anti-CD62P (clone Psel.KO2.3, eBioscience, San Diego, CA) and FITC-labeled annexin V (eBioscience, San Diego, CA) were added to indicate platelet a-granule secretion and phosphatidylserine externalization (PSE) during platelet biochemical activation. Integrin GP αIIbβ3 activation was evaluated by double-staining technique. […] A pair of antibodies against αIIbβ3 was added simultaneously into a test tube containing activated platelet sample to identify the number of platelets exposing activated αIIbβ3 among all αIIbβ3-expressing platelet population. Cells were incubated with annexin V or antibodies for 30 minutes at room temperature in the dark, washed by centrifugation (5000 rpm, 5 min), resuspended in 1 ml of Ca-free 0.05 M phosphate buffer (pH-7.4) and transferred in polystyrene tube for flow cytometry. Flow cytometry analysis was performed within 15 minutes after sample preparation.
(§2) Flow cytometry was performed on FACS Canto II (BD Biosciences, San Jose, CA) using the following configurations: HeNe red laser (633 nm) and 660/20 filter—for APC, solid state blue laser (488 nm) and 530/30 filter—for FITC-stained cell detection. Single platelets were distinguished from their aggregates and microparticles based on their characteristic forward versus side scatter. […] BD FACSDiva™ software was applied to analyze flow cytometry data statistics (percentage of marker-positive platelets among whole platelet population and their median fluorescence intensity).
To assess the magnitude of integrin GPIIb/IIIa activation after platelet stimulation with constant shear or biochemical agonists, the number of whole GPIIb/IIIa-positive platelet population was compared with the number of those presenting activated form of the integrin on their membrane. For this purpose, double staining with APC-conjugated anti-CD41 and FITC-conjugated anti-CD41/CD61 was applied as describe in the methods described above. Among parental CD41-positive platelet population, CD41/CD61-positive cells were distinguished based on their FITC-fluorescence intensity level (≥4000 AU) and assumed as presenting activated form of integrin GPIIb/IIIa on their surface (FIGS. 4A-4G, sub-population P3).

[2] = system: P-selectin exposure on gel-filtered platelets; experiment: Flow cytometry of platelet P-selectin exposure (anti-CD62P-APC) after biochemical activation; format: cell-based, human; details: 2.5 mM CaCl2, room temperature; for number of CD62P-positive cells, % of whole platelet population: GFP 2×10^4 platelets/μL, 10 uM ADP, 10 μg/mL epinephrine, 1 mM arachidonic acid, gate ≥3000 AU; for P-selectin exposure (in words): GFP, 32 μM TRAP6, 1 U/mL thrombin, 100 μg/mL collagen
Procedure: as §1, §2
(§3) To define the molecular signature of SMPA, biochemical versus mechanical platelet activation by uniform shear stress applied in the hemodynamic shearing device (HSD) was compared. […] Mechanical platelet activation was obtained via GFP exposure to uniform continuous shear in HSD as described above in “Shear-mediated platelet activation”. Physiologically relevant shear stress levels (30 and 50 dynes/cm^2) close to those found in blood stream vs. sub-pathological shear conditions (70 dynes/cm^2) existing within MCS were examined. Initially, the P-selectin exposure, as a known marker of platelet activation and α-granule secretion, was detected employing mono immunostaining and quantified by flow cytometry. Those cells showing high fluorescence intensity (≥3000 AU) were gated as P-selectin positive platelets and marked as sub-population P6 (FIGS. 2A-2G).

[3] = system: phosphatidylserine externalization on gel-filtered platelets; experiment: Annexin V binding assay of phosphatidylserine externalization (flow cytometry); format: cell-based, human; details: GFP, 2.5 mM CaCl2; for annexin V binding after platelet stimulation (in words): agonist taken alone
Procedure: as §1, §2
To detect phosphatidylserine exposure, an annexin V binding assay is extensively utilized. The principle of the assay is based on the high affinity binding of protein annexin V labeled with fluorescence dye to phosphatidylserine on platelet surface with the aid of Ca2+ ions (Demchenko, Cytotechnology, vol. 65, no. 2, pp. 157-72, March (2013)).

[4] = system: human platelets (GFP, PRP); experiment: Platelet aggregation induced with biochemical agonists (optical aggregometer); format: cell-based; details: 1 mM CaCl2, 5 min, 37° C.; for ability to induce platelet aggregation in GFP: gel-filtered platelets, 32 μM TRAP6, 1 U/mL thrombin, 100 μg/mL collagen, 1 mM arachidonic acid
Procedure: Platelet aggregation was assessed in PRP or GFP samples employing dual channel optical aggregometer (Model 560-VS, Chrono-Log Corporation, Havertown, PA). […] Platelet count in aggregation mixture was adjusted to 150-200×10^3 plt/μL (in GFP) and to 300-350×10^3 plt/μL (in PRP), final CaCl2 concentration was 1 mM. Aggregation was started by adding mentioned agonists and running for 5 minutes at 37° C. with 1000 rpm stirring. The changes in relative light transmittance were recorded, and arbitrary values for each aggregation curve were calculated with Aggrolink software (Chrono-Log Corporation, Havertown, PA).
as §3

[5] = system: procoagulant activity of gel-filtered platelets; experiment: Prothrombinase-based Platelet Activation State (PAS) assay, thrombin generation on platelet surface; format: cell-based, human; details: platelets 5×10^3 cells/μL, 200 nM acetylated prothrombin, 100 pM factor Xa, 37° C., 10 minutes
Excerpt: PAS was quantified by chemically modified prothrombinase-based chromogenic assay developed by Jesty and Bluestein (Jesty & Bluestein, Anal. Biochem. (1999), Jesty et al., Platelets, vol. 14, no. 3, pp. 143-149, 2003). The assay measures the rate of acetylated thrombin generation from acetylated proenzyme cleavage by factor Xa in presence of activated platelets. […] Activated, but not resting, platelets present factor Va and negatively charged phospholipids (mostly phosphatidylserine) on their surface for prothrombinase complex formation and thrombin generation. Thus, the rate of enzymatic cleavage of chromogenic substrate Chromozym TH (Tosyl-Gly-Pro-Arg-4-nitranilide acetate, Roche Diagnostics GmbH, Mannheim, Germany) by acetylated thrombin reflects the value of initial activation state of the platelets tested (Jesty & Bluestein, Anal. Biochem. (1999), Rubenstein et al., Circulation, (2004)).
Platelet samples preliminary stimulated with biochemical activators, shear or sonication (platelet count—5×10^3 cells/μL) were incubated with 200 nM acetylated prothrombin, 100 pM factor Xa (Enzyme Research Laboratories, South Bend, IN), 5 mM CaCl2) in a volume of 100 μL 20 mM HEPES, pH 7.4, containing 130 mM NaCl and 0.1% BSA at 37° C. for 10 minutes. Then, 10 μL of each timed sample was measured for thrombin activity in microplate wells, containing 0.3 mM Cromozyme TH, 3 mM EDTA in 20 mM HEPES, pH 7.4, containing 130 mM NaCl and 0.1% BSA. Kinetic change of absorbance (λ=405 nm) was measured for 7 minutes at room temperature using microplate reader Versa MAX (Molecular Devices Corp., Sunnyvale, CA). The value of PAS or initial rate of thrombin generation was calculated as a slope of kinetic curve (ΔA405/min) with SoftMax Pro6 Software.

[6] = system: human platelets; details: not sensitive to cyclooxygenase inhibitors; cited from earlier work

Compound	number of CD41/CD61-positive platelets following GFP stimulation (in words) [1]	number of CD62P-positive cells, % of whole platelet population [2]	number of annexin V-positive platelets, % of whole platelet population ([3]; arachidonic acid 1 mM)	ability to induce platelet aggregation in GFP [4]	thrombin generation / amidolytic activity in presence of stimulated platelets (PAS assay, in words) [5]	AA concentration required for Ca^2+ influx [6]	annexin V binding after platelet stimulation (in words) [3]	number of platelets presenting activated GPIIb/IIIa (CD41/CD61-positive among CD41-positive) [1]	elevation of number of platelets presenting activated GPIIb/IIIa as compared with intact platelets [1]	ability to induce platelet aggregation in PRP ([4]; platelet-rich plasma, 10 uM ADP, 10 μg/mL epinephrine)	P-selectin exposure (in words) [2]
CCCCC/C=C\C/C=C\C/C=C\C/C=C\CCCC(=O)O [arachidonic acid]	not significantly elevated	52.1±6.8%	52.12±6.79%	induce platelet aggregation	comparable with sonicated GFP sample	60 µM					
CNC[C@H](O)c1ccc(O)c(O)c1 [epinephrine]	not significantly elevated	18.6±1.5%			no amidolytic activity was detected		No annexin V binding				
Nc1ncnc2c1ncn2[C@@H]1O[C@H](COP(=O)(O)OP(=O)(O)O)[C@@H](O)[C@H]1O [ADP, Adenosine DiPhosphate]		46.8±3.9%			no amidolytic activity was detected		No annexin V binding	28.0±8.9%	4.2 times	induce platelet aggregation	
thrombin				induce platelet aggregation			No annexin V binding	63.5±10.2%	9.6 times		dramatic augmentation of P-selectin exposure
thrombin receptor activating peptide-6 [TRAP-6]	not significantly elevated			induce platelet aggregation	no amidolytic activity was detected		No annexin V binding				dramatic augmentation of P-selectin exposure
collagen	not significantly elevated			induce platelet aggregation	no amidolytic activity was detected		No annexin V binding				failed to induce high P-selectin exposure
